We go through 23 compounds from patent US20250034167A1, “HETEROCYCLIC COMPOUNDS AND METHODS OF USE” (AMGEN INC., priority 2021, published 2025).

The assay deals with His-tagged KRAS G12D protein (Homo sapiens, UniProt P01116, G12D). Nature of the assay: biochemical.
Chain of His-tagged KRAS G12D protein (P01116 1-188 isoform P01116-2 G12D): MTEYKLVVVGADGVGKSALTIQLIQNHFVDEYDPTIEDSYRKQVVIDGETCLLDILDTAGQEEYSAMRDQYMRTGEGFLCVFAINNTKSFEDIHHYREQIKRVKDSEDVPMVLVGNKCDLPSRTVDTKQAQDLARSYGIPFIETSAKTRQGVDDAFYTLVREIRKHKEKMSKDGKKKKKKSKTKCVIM
Method: The plate was incubated for 30 minutes at room temperature. Biotinylated KRPep-2d substrate (Amgen) was diluted to nM in Assay Buffer and 2 μL was added to all wells and incubated for 1 hour at room temperature. Detection Reagent (0.4 nM LANCE Eu-W1024 Anti-6×His (Perkin Elmer AD0401), 5 nM streptavidin-d2 (Cisbio 610SADLA)) was prepared in Assay Buffer, then 4 µL was added to the plate and incubated for 1 hour at room temperature.
What is called IC50 is the concentration at which inhibition is half-maximal. The low end stands for greater potency, the high end for weaker potency. In the case of `CCc1c(F)ccc2cc(O)cc(-c3ncc4c(N5CC[C@H]6CNC(=O)[C@H]6C5)nc(OC[C@@]56CCCN5C[C@H](F)C6)nc4c3F)c12` (relative stereo) [Example 103, rel-(3aR,7aR)-5-(7-(8-Ethyl-7-fluoro-3-hydroxynaphthalen-1-yl)-8-fluoro-2-(((2R,7aS)-2-fluorotetrahydro-1H-pyrrolizin-7a(5H)-yl)methoxy)pyrido[4,3-d]pyrimidin-4-yl)octahydro-3H-pyrrolo[3,4-c]pyridin-3-one], the IC50 amounted to 0.004 µM.

As to `CCc1c(F)ccc2cc(O)cc(-c3ncc4c(N5CC(C(N)=O)CC(C)(C)C5)nc(OC[C@@]56CCCN5C[C@H](F)C6)nc4c3F)c12` (stereo partly drawn) [Example 43, 1-(7-(8-Ethyl-7-fluoro-3-hydroxynaphthalen-1-yl)-8-fluoro-2-(((2R,7aS)-2-fluorotetrahydro-1H-pyrrolizin-7a(5H)-yl)methoxy)pyrido[4,3-d]pyrimidin-4-yl)-5,5-dimethylpiperidine-3-carboxamide], the IC50 was 0.004 µM.

The compound `CCc1c(F)ccc2cc(O)cc(-c3ncc4c(N5CC=CC(O)C5)nc(OC[C@@]56CCCN5C[C@H](F)C6)nc4c3F)c12` (stereo partly drawn) [Example 109, 1-(7-(8-Ethyl-7-fluoro-3-hydroxynaphthalen-1-yl)-8-fluoro-2-(((2R,7aS)-2-fluorotetrahydro-1H-pyrrolizin-7a(5H)-yl)methoxy)pyrido[4,3-d]pyrimidin-4-yl)-1,2,3,6-tetrahydropyridin-3-ol] returned an IC50 of 0.012 µM.

`CCc1c(F)ccc2cc(O)cc(-c3ncc4c(N5CC(O)CC(C)(C)C5)nc(OC[C@@]56CCCN5C[C@H](F)C6)nc4c3F)c12` (some centres unmarked) [Example 32] came in with an IC50 of 0.009 µM.

The compound `CCc1c(F)ccc2cc(O)cc(-c3ncc4c(N5CCCC(c6cnco6)C5)nc(OC[C@@]56CCCN5C[C@H](F)C6)nc4c3F)c12` (stereo partly drawn) [Example 108, 5-Ethyl-6-fluoro-4-(8-fluoro-2-(((2R,7aS)-2-fluorotetrahydro-1H-pyrrolizin-7a(5H)-yl)methoxy)-4-(3-(oxazol-5-yl)piperidin-1-yl)pyrido[4,3-d]pyrimidin-7-yl)naphthalen-2-ol] yielded an IC50 of 0.011 µM.

In turn, `CCc1c(F)ccc2cc(O)cc(-c3ncc4c(N5C6CCC(O)C5CC6)nc(OC[C@@]56CCCN5C[C@H](F)C6)nc4c3F)c12` (stereo partly drawn) [Example 34, 8-(7-(8-Ethyl-7-fluoro-3-hydroxynaphthalen-1-yl)-8-fluoro-2-(((2R,7aS)-2-fluorotetrahydro-1H-pyrrolizin-7a(5H)-yl)methoxy)pyrido[4,3-d]pyrimidin-4-yl)-8-azabicyclo[3.2.1]octan-2-ol 2,2,2-trifluoroacetate] yielded an IC50 of 0.054 µM.

`CCc1c(F)ccc2cc(O)cc(-c3ncc4c(N5CC6CNC(=O)C6C5)nc(OC[C@@]56CCCN5C[C@H](F)C6)nc4c3F)c12` (relative stereo) [Example 61, rel-(3aR,6aS)-5-(7-(8-Ethyl-7-fluoro-3-hydroxynaphthalen-1-yl)-8-fluoro-2-(((2R,7aS)-2-fluorotetrahydro-1H-pyrrolizin-7a(5H)-yl)methoxy)pyrido[4,3-d]pyrimidin-4-yl)hexahydropyrrolo[3,4-c]pyrrol-1(2H)-one] registered an IC50 of 0.005 µM.

As to `CCc1c(F)ccc2cc(O)cc(-c3ncc4c(N5CCCC(C)(OC)C5)nc(OC[C@@]56CCCN5C[C@H](F)C6)nc4c3F)c12` (stereo partly drawn) [Example 148, 5-Ethyl-6-fluoro-4-(8-fluoro-2-(((2R,7aS)-2-fluorotetrahydro-1H-pyrrolizin-7a(5H)-yl)methoxy)-4-(3-methoxy-3-methylpiperidin-1-yl)pyrido[4,3-d]pyrimidin-7-yl)naphthalen-2-ol], half-maximal inhibition (IC50) required 0.038 µM.

As for `CCc1c(F)ccc2cc(O)cc(-c3ncc4c(N5CCCC(C#N)C5)nc(OC[C@@]56CCCN5C[C@H](F)C6)nc4c3F)c12` (stereo partly drawn) [Example 151, 1-(7-(8-Ethyl-7-fluoro-3-hydroxy-naphthalen-1-yl)-8-fluoro-2-(((2R,7aS)-2-fluorotetrahydro-1H-pyrrolizin-7a(5H)-yl)methoxy)pyrido[4,3-d]pyrimidin-4-yl)piperidine-3-carbonitrile], the IC50 was 0.011 µM.

With `CCc1c(F)ccc2cc(O)cc(-c3ncc4c(N5CCCC(S(=O)(=O)C(F)F)C5)nc(OC[C@@]56CCCN5C[C@H](F)C6)nc4c3F)c12` (stereo partly drawn) [Example 161, 4-(4-(3-((Difluoromethyl)sulfonyl)piperidin-1-yl)-8-fluoro-2-(((2R,7aS)-2-fluorotetrahydro-1H-pyrrolizin-7a(5H)-yl)methoxy)pyrido[4,3-d]pyrimidin-7-yl)-5-ethyl-6-fluoronaphthalen-2-ol], the IC50 amounted to 0.076 µM.

For the compound `CCc1c(F)ccc2cc(O)cc(-c3ncc4c(N5CC6CCC(C(N)=O)(C6)C5)nc(OC[C@@]56CCCN5C[C@H](F)C6)nc4c3F)c12` (relative stereo) [Example 121, 3-(7-(8-Ethyl-7-fluoro-3-hydroxynaphthalen-1-yl)-8-fluoro-2-(((2R,7aS)-2-fluorotetrahydro-1H-pyrrolizin-7a(5H)-yl)methoxy)pyrido[4,3-d]pyrimidin-4-yl)-3-azabicyclo[3.2.1]octane-1-carboxamide], the midpoint of inhibition, the IC50, lay at 0.006 µM.

For `CCc1c(F)ccc2cc(O)cc(-c3ncc4c(N5CCCC(c6ccn[nH]6)C5)nc(OC[C@@]56CCCN5C[C@H](F)C6)nc4c3F)c12` (stereo partly drawn) [Example 107, 4-(4-(3-(1H-Pyrazol-5-yl)piperidin-1-yl)-8-fluoro-2-(((2R,7aS)-2-fluorotetrahydro-1H-pyrrolizin-7a(5H)-yl)methoxy)pyrido[4,3-d]pyrimidin-7-yl)-5-ethyl-6-fluoronaphthalen-2-ol], the IC50 was 0.008 µM.

Turning to `CCc1c(F)ccc2cc(O)cc(-c3ncc4c(N5CCCC[C@H](O)C5)nc(OC[C@@]56CCCN5C[C@H](F)C6)nc4c3F)c12` [Example 130, (S)-1-(7-(8-Ethyl-7-fluoro-3-hydroxynaphthalen-1-yl)-8-fluoro-2-(((2R,7aS)-2-fluorotetrahydro-1H-pyrrolizin-7a(5H)-yl)methoxy)pyrido[4,3-d]pyrimidin-4-yl)azepan-3-ol], the IC50 is 0.004 µM.

The compound `CCc1c(F)ccc2cc(O)cc(-c3ncc4c(N5CCCC(c6c[nH]cn6)C5)nc(OC[C@@]56CCCN5C[C@H](F)C6)nc4c3F)c12` (stereo partly drawn) [Example 106, 4-(4-(3-(1H-Imidazol-4-yl)piperidin-1-yl)-8-fluoro-2-(((2R,7aS)-2-fluorotetrahydro-1H-pyrrolizin-7a(5H)-yl)methoxy)pyrido[4,3-d]pyrimidin-7-yl)-5-ethyl-6-fluoronaphthalen-2-ol] showed an IC50 of 0.01 µM.

The compound `CCc1c(F)ccc2cc(O)cc(-c3ncc4c(N5C[C@@H]6COC[C@@H]65)nc(OC[C@@]56CCCN5C[C@H](F)C6)nc4c3F)c12` [Example 20, 4-(4-((1S,5R)-3-Oxa-6-azabicyclo[3.2.0]heptan-6-yl)-8-fluoro-2-(((2R,7aS)-2-fluorotetrahydro-1H-pyrrolizin-7a(5H)-yl)methoxy)pyrido[4,3-d]pyrimidin-7-yl)-5-ethyl-6-fluoronaphthalen-2-ol] registered a 50% inhibitory concentration (IC50) of 0.039 µM.

Compound `CCc1c(F)ccc2cc(O)cc(-c3ncc4c(N5CCCC(C(C)(C)O)C5)nc(OC[C@@]56CCCN5C[C@H](F)C6)nc4c3F)c12` (stereo partly drawn) [Example 124, 5-Ethyl-6-fluoro-4-(8-fluoro-2-(((2R,7aS)-2-fluorotetrahydro-1H-pyrrolizin-7a(5H)-yl)methoxy)-4-(3-(2-hydroxypropan-2-yl)piperidin-1-yl)pyrido[4,3-d]pyrimidin-7-yl)naphthalen-2-ol] yielded an IC50 of 0.07 µM.

Consider `CCc1c(F)ccc2cc(O)cc(-c3ncc4c(N5CC[C@H](C)[C@@H](O)C5)nc(OC[C@@]56CCCN5C[C@H](F)C6)nc4c3F)c12` [Example 35, (3R,4S)-1-(7-(8-Ethyl-7-fluoro-3-hydroxynaphthalen-1-yl)-8-fluoro-2-(((2R,7aS)-2-fluorotetrahydro-1H-pyrrolizin-7a(5H)-yl)methoxy)pyrido[4,3-d]pyrimidin-4-yl)-4-methyl-piperidin-3-ol], for which the 50% inhibitory concentration (IC50) was determined as 0.025 µM.

With `CCc1c(F)ccc2cc(O)cc(-c3ncc4c(N5CC6CCOC6C5)nc(OC[C@@]56CCCN5C[C@H](F)C6)nc4c3F)c12` (stereo partly drawn) [Example 37, 5-Ethyl-6-fluoro-4-(8-fluoro-2-(((2R,7aS)-2-fluorotetrahydro-1H-pyrrolizin-7a(5H)-yl)methoxy)-4-(hexahydro-5H-furo[2,3-c]pyrrol-5-yl)pyrido[4,3-d]pyrimidin-7-yl)naphthalen-2-ol], the IC50 was 0.042 µM.

Compound `CCc1c(F)ccc2cc(O)cc(-c3ncc4c(N5CC6CC(O)C5C6)nc(OC[C@@]56CCCN5C[C@H](F)C6)nc4c3F)c12` (stereo partly drawn) [Example 51, 2-(7-(8-Ethyl-7-fluoro-3-hydroxynaphthalen-1-yl)-8-fluoro-2-(((2R,7aS)-2-fluorotetrahydro-1H-pyrrolizin-7a(5H)-yl)methoxy)pyrido[4,3-d]pyrimidin-4-yl)-2-azabicyclo[2.2.1]heptan-6-ol] showed an IC50 of 0.025 µM.

Regarding `CCc1c(F)ccc2cc(O)cc(-c3ncc4c(N5CCC6OCCC6C5)nc(OC[C@@]56CCCN5C[C@H](F)C6)nc4c3F)c12` (relative stereo) [Example 62, 5-Ethyl-6-fluoro-4-(8-fluoro-2-(((2R,7aS)-2-fluorotetrahydro-1H-pyrrolizin-7a(5H)-yl)methoxy)-4-rel-((3aR,7aS)-hexahydrofuro[3,2-c]pyridin-5(4H)-yl)pyrido[4,3-d]pyrimidin-7-yl)naphthalen-2-ol], the concentration for half-maximal inhibition (IC50) stood at 0.04 µM.

In turn, `CCC1CCCc2cc(O)cc(-c3ncc4c(N5CCC[C@@](C)(O)C5)nc(OC[C@@]56CCCN5C[C@H](F)C6)nc4c3F)c21` (single isomer, unassigned) [Example 174] showed an IC50 of 0.335 µM.

The compound `CCc1c(F)ccc2cc(O)cc(-c3ncc4c(N5CCC5C(N)=O)nc(OC[C@@]56CCCN5C[C@H](F)C6)nc4c3F)c12` (stereo partly drawn) [Example 5, 1-(7-(8-Ethyl-7-fluoro-3-hydroxynaphthalen-1-yl)-8-fluoro-2-(((2R,7aS)-2-fluorotetrahydro-1H-pyrrolizin-7a(5H)-yl)methoxy)pyrido[4,3-d]pyrimidin-4-yl)azetidine-2-carboxamide] had a 50% inhibitory concentration (IC50) of 0.019 µM.

Regarding `C=C1CCCN(c2nc(OC[C@@]34CCCN3C[C@H](F)C4)nc3c(F)c(-c4cc(O)cc5ccc(F)c(CC)c45)ncc23)CC1` [Example 144, 5-Ethyl-6-fluoro-4-(8-fluoro-2-(((2R,7aS)-2-fluorotetrahydro-1H-pyrrolizin-7a(5H)-yl)methoxy)-4-(4-methyleneazepan-1-yl)pyrido[4,3-d]pyrimidin-7-yl)naphthalen-2-ol], the IC50 was found to be 0.006 µM.
